What was measured:
[1] = tested on: Caki-1 renal cell carcinoma cells; experiment: Viability of Caki-1 renal cell carcinoma cells treated with ferroptosis inducer, with or without Ferrostatin-1; format: cell-based
[2] = tested on: NFKB; experiment: NFKB reporter activity in THP1-Dual monocytes co-cultured with treated Caki-1 cells; format: cell-based, human
Method: Caki-1 renal cell carcinoma cells were treated with either control (DMSO) or various doses of Erastin, for 24 hours prior to co-culture with THP1-Dual cells for an additional 24 hours. Erastin was purchased from Selleckchem (Houston, Tex.) and dissolved in DMSO. Subsequently, the THP1 supernatants were assessed for NFKB or IRF reporter activity. Caki-1 cells were acquired from ATCC and THP1-Dual cells acquired from InvivoGen (San Diego, Calif.). Both cell types were cultured in 96-well plates for the duration of the assay. 7.500 Caki-1 cells were plated 24 hours prior to dosing with Erastin, with a final DMSO concentration of 0.5%. 24 hours post-treatment, THP1-Dual cells (25,000 cells/well) were added to the Caki-1 cells. 24 hours later, 30 μl of supernatant was mixed with either 200 μl QuantiBlue (InvivoGen) or 50 μl QuantiLuc and absorbance or luminescence was recorded on a Molecular Devices plate reader. Caki-1 renal cell carcinoma cells were treated with either control (DMSO) or various doses of RSL3, for 24 hours prior to co-culture with THP1-Dual cells for an additional 24 hours. RSL3 was purchased from Selleckchem and dissolved in DMSO. Subsequently, the THP1 supernatants were assessed for NFKB or IRF reporter activity. Caki-1 cells were acquired from ATCC and THP1-Dual cells acquired from InvivoGen (San Diego, Calif.). Both cell types were cultured in 96-well plates for the duration of the assay. 7.500 Caki-1 cells were plated 24 hours prior to dosing with […], with a final DMSO concentration of 0.5%. 24 hours post-treatment, THP1-Dual cells (25,000 cells/well) were added to the Caki-1 cells. 24 hours later, 30 μl of supernatant was mixed with either 200 μl QuantiBlue (InvivoGen, San Diego, Calif.) or 50 μl QuantiFuc and absorbance or luminescence was recorded on a Molecular Devices plate reader. […] Subsequently, the THP1 supernatant was assessed for NFKB reporter activity. […]

[3] = tested on: A20 B-cell leukemia cells; experiment: Viability of A20 cells treated with GPX4 inhibitor, with or without Ferrostatin-1; format: cell-based; conditions: for viability of A20 cells: various doses, 24 hours treatment
[4] = tested on: NFKB; experiment: NFKB reporter activity in THP1-Dual monocytes co-cultured with treated A20 cells; format: cell-based, human; conditions: for NFKB signaling in THP1 monocytes: A20 cells treated 24 hours, then co-culture with THP1-Dual cells 24 hours
Method: A20 B-cell leukemia cells were treated with either control (DMSO) or various doses of RSL3, for 24 hours prior to co-culture with THP1-Dual cells for an additional 24 hours. RSL3 was purchased from Selleckchem (Houston, Tex.) and dissolved in DMSO. Subsequently, the THP1 supernatants were assessed for NFKB or IRF reporter activity.
A20 cells were acquired from ATCC and THP1-Dual cells acquired from InvivoGen (San Diego, Calif.). Both cell types were cultured in 96-well plates for the duration of the assay. 50,000 A20 cells were plated 24 hours prior to dosing with RSL3, with a final DMSO concentration of 0.5%. 24 hours post-treatment, THP1-Dual cells (25,000 cells/well) were added to the A20 cells. 24 hours later, 30 μl of supernatant was mixed with either 200 μl QuantiBlue (InvivoGen, San Diego, Calif.) or 50 μl QuantiLuc and absorbance or luminescence was recorded on a Molecular Devices plate reader.
A20 lymphoma cells were treated with various doses (e.g. 0.002, 0.005, 0.014, 0.041, 0.123, 0.370, 1.111, 3.333 and 10 μM) of a GPX4 inhibitor (RSL3, ML162 or ML210) in the presence or absence of 1 μM Ferrostatin-1 for 24 hours. ML162 was purchased from Cayman Chemical Company Inc and resuspended in DMSO. ML210 was purchased from Sigma-Aldrich and resuspended in DMSO. A20 lymphoma cells were also treated with DMSO as a negative control. After treatment with DMSO or a GPX4 inhibitor for 24 hours, the A20 lymphoma cells were co-cultured with THP1-Dual cells for an additional 24 hours. Subsequently, the THP1 supernatant was assessed for NFKB reporter activity. A20 cells were acquired from ATCC and THP1-Dual cells were acquired from InvivoGen (San Diego, Calif.). Both cell types were cultured in 96-well plates for the duration of the assay.

[5] = tested on: C57/B6 mice; experiment: Dextran sodium sulfate colitis in mice; format: in vivo; conditions: 10 mg/kg, i.p., 3-4% dextran sodium sulfate 5 days, compared to vehicle
Method: C57/B6 mice are treated with vehicle or Ferrostatin (10 mg/kg, i.p) before the induction of colitis by administration of 3-4% dextran sodium sulfate in the drinking water for 5 days. An anti-inflammatory effect of ferrostatin compared to vehicle is confirmed by […], decreased diarrhea, and decreased weight loss. In addition, inhibition of neutrophil recruitment (innate immune response) by ferrostatin in confirmed by decreased myeloperoxidase activity in the colon (compared to vehicle).

[6] = tested on: HT1080 fibrosarcoma cells; experiment: Viability of HT1080 fibrosarcoma cells treated with ferroptosis inducer, with or without ferroptosis inhibitor or siRNA; format: cell-based; conditions: various doses, 24 hours treatment
[7] = tested on: NFKB; experiment: NFKB reporter activity in THP1-Dual monocytes co-cultured with treated HT1080 cells; format: cell-based, human; conditions: HT1080 cells treated 24 hours, then co-culture with THP1-Dual cells 24 hours
Method: HT1080 fibrosarcoma cells were treated with either control (DMSO) or various doses of Erastin, piperazine erastin (PE), or imidazole ketoerastin (IKE) for 24 hours prior to co-culture with THP1-Dual cells for an additional 24 hours. Erastin was purchased from Selleckchem (Houston, Tex.) and dissolved in DMSO. Subsequently, the THP1 supernatants were assessed for nuclear factor kappa-light-chain-enhancer of activated B cells (NFKB) or interferon regulatory factor (IRF) reporter activity.
HT1080 cells were acquired from ATCC and THP1-Dual cells were acquired from InvivoGen (San Diego, Calif.). […] 24 hours later, 30 μl of supernatant was mixed with either 200 μl QuantiBlue (InvivoGen, San Diego, Calif.) (for NFKB reporter activity) or 50 μl QuantiLuc (for IRF reporter activity) and absorbance or luminescence was recorded on a Molecular Devices plate reader.
HT1080 fibrosarcoma cells were treated with various doses of Erastin (e.g. 0.8, 0.16, 0.31, 0.63, 1.25, 2.5, 5, 10 or 20 μM) alone or in combination with a ferroptosis inhibitor (1 μM Ferrostatin-1, 1 μM Liproxstatin-1, 100 μM Trolox, 25 μM β-Mercaptoethanol or 100 μM Deferoxamine) for 24 hours prior to co-culture with THP1-Dual cells for an additional 24 hours. […] Subsequently, the THP1 supernatant was assessed for NFKB activity. […]

SMILES: CCOC(=O)c1ccc(NC2CCCCC2)c(N)c1 [Ferrostatin-1]
- effect on viability of Caki-1 renal carcinoma cells decreased by GPX4 inhibitor (RSL3 or ML162) ([1]; 1 μM Ferrostatin, 24 hours): attenuated
- effect on NFKB activity in THP1 cells increased by RSL3- or ML162-treated Caki-1 cells ([2]; 1 μM Ferrostatin): attenuated
- effect on viability of A20 lymphoma cells decreased by GPX4 inhibitor (RSL3, ML162 or ML210) ([3]; 1 μM Ferrostatin-1, 24 hours): attenuated
- effect on NFKB activity in THP1 cells increased by GPX4 inhibitor-treated A20 lymphoma cells ([4]; 1 μM Ferrostatin-1): attenuated
- colon length [5]: decreased
- diarrhea [5]: decreased
- myeloperoxidase activity in the colon [5]: decreased
- weight loss [5]: decreased

SMILES: CC(C)Oc1ccc(C(=O)Cn2ccnc2)cc1-n1c(CN2CCN(C(=O)COc3ccc(Cl)cc3)CC2)nc2ccccc2c1=O [IKE, imidazole ketoerastin]
- viability of HT1080 cells [6]: negatively affected the viability
- NFKB signaling in THP1 monocytes [7]: elicited NFKB signaling

SMILES: COc1ccc(N(C(=O)CCl)C(C(=O)NCCc2ccccc2)c2cccs2)cc1Cl (stereo not drawn) [ML162]
- viability of Caki-1 cells ([1]; various doses, 24 hours treatment): decreased viability of the cells in a dose dependent manner
- NFKB signaling in THP1 monocytes ([2]; Caki-1 cells treated 24 hours, then co-culture with THP1-Dual cells 24 hours): increased NFKB activity in THP1 cells in a dose dependent manner
- viability of A20 cells [3]: decreased viability of the cells in a dose dependent manner
- NFKB signaling in THP1 monocytes [4]: increased NFKB activity in THP1 cells in a dose dependent manner

SMILES: Cc1onc(C(=O)N2CCN(C(c3ccc(Cl)cc3)c3ccc(Cl)cc3)CC2)c1[N+](=O)[O-] [ML210]
- viability of A20 cells [3]: decreased viability of the cells in a dose dependent manner
- NFKB signaling in THP1 monocytes [4]: increased NFKB activity in THP1 cells in a dose dependent manner

SMILES: CC(C)Oc1ccc(CN2CCNCC2)cc1-n1c(CN2CCN(C(=O)COc3ccc(Cl)cc3)CC2)nc2ccccc2c1=O [PE, piperazine erastin]
- viability of HT1080 cells [6]: negatively affected the viability
- NFKB signaling in THP1 monocytes [7]: elicited NFKB signaling

— patent US20210283091A1, “DECREASING IMMUNE ACTIVITY THROUGH MODULATION OF POSTCELLULAR SIGNALING FACTORS” (FLAGSHIP PIONEERING INNOVATIONS V, INC., priority 2018, published 2021)
